The target in data set [1] is Mu-type opioid receptor (Rattus norvegicus, UniProt P33535). As to the kind of experiment: Displacement of [3H]-DAMGO from rat cortical membrane MOR assessed as inhibition constant incubated for 2 hrs by Wallac Betaplate liquid scintillation counting analysis. Type of data set: cell membranes, Cortex. A general note: Displacement assays read how much labelled ligand stays bound in the presence of the test substance.

Data set [2] deals with Delta-type opioid receptor (Rattus norvegicus, UniProt P33533). As to the kind of experiment: Displacement of [3H]-DPDPE from rat cortical membrane DOR assessed as inhibition constant incubated for 2.5 hrs by Wallac Betaplate liquid scintillation counting analysis. Type of data set: cell membranes, Cortex.
Data set [3] deals with Kappa-type opioid receptor (Cavia porcellus, UniProt P41144). Put plainly: Displacement of [3H]U69593 from guinea pig KOR assessed as inhibition constant incubated for 2 hrs by Wallac Betaplate liquid scintillation counting analysis.
Data set [4] has as its system Mus musculus. Put plainly: Antinociceptive activity in male C57BL/6J mouse preadministered with compound for 10 mins followed by acetic acid administration and measured after 15 to 30 min by Acetic acid stretching assay (AcAS). The data set is classed as functional. Conditions: time 25-40 min.
Data set [5] concerns Mus musculus. As to the kind of experiment: Antinociceptive activity in male C57BL/6J mouse assessed as peripheral restriction at 15 mg/kg, ip by 55 degreeC warm-water tail-withdrawal assay. Type of data set: functional.
Data set [6] concerns Mus musculus. As to the kind of experiment: Antinociceptive activity in KOR knockout male C57BL/6J mouse model at 10 nmol, ICV administered for 10 mins by 55 degreeC warm-water tail-withdrawal assay. The data set is classed as functional, organism-based.
Data set [7] can be described thus: Toxicity in C57BL/6J mouse assessed as increase in ambulation at 15 mg/kg, ip measured up to 120 min. The data set is classed as organism-based. Conditions: in vivo, 2 h.
A short description of data set [8]: Toxicity in C57BL/6J mouse assessed as respiratory depression at 15 mg/kg, ip measured after 20 mins. Conditions: in vivo. The data set is classed as organism-based.
Data set [9] can be described thus: Toxicity in C57BL/6J mouse assessed as effect on locomotor activity at 15 mg/kg, ip measured up to 120 min. The data set is classed as organism-based. Conditions: in vivo, 2 h.
In data set [10] the test system is Mus musculus. Put plainly: Antinociceptive activity in MOR knockout male C57BL/6J mouse model at 10 nmol, ICV administered for 10 mins by 55 degreeC warm-water tail-withdrawal assay. The data set is classed as functional, organism-based.
Data set [11] has as its target Delta-type opioid receptor (Mus musculus) (UniProt P32300). Put plainly: Partial agonist activity at mouse DOR extracted from CHO cell membrane assessed as stimulation of [35S]GTPgammaS binding at 1 to 10 uM incubated for 60 mins by liquid scintillation counting assay. Type of data set: functional, cell membranes. The conditions noted are these: filed as partial agonist, dose 1-10 µM.

Data set [12] relates to Mus musculus. Put plainly: Antinociceptive activity in male C57BL/6J mouse assessed as peripheral restriction at 15 mg/kg, ip pre-treated with naloxone methiodide at 30 mg/kg, SC for 30 min by 55 degreeC warm-water tail-withdrawal assay. Type of data set: functional.
Data set [13] is described as follows: Selectivity ratio of ED50 for antinociceptive activity in male C57BL/6J mouse at 10 mg/kg, ip measured after 10 min by 55 degreeC warm-water tail-withdrawal assay to ED50 for antinociceptive activity in male C57BL/6J mouse preadministered with compound for 10 mins followed by acetic acid administration and measured after 15 to 30 min by Acetic acid stretching assay (AcAS). The data set is classed as functional.

The subject of data set [14] is Mus musculus. Put plainly: Antinociceptive activity in male C57BL/6J mouse assessed as peripheral restriction at 15 mg/kg, ip pre-treated with naloxone methiodide at 30 nmol, ICV for 30 min by 55 degreeC warm-water tail-withdrawal assay. The data set is classed as functional.
The species entered for data set [15] is Mus musculus. As to the kind of experiment: Antinociceptive activity in male C57BL/6J mouse measured after 10 min by 55 degreeC warm-water tail-withdrawal assay. Type of data set: functional.
Data set [16] relates to Mus musculus. As to the kind of experiment: Antinociceptive activity in wild type male C57BL/6J mouse model at 10 nmol, ICV preadministered with naltrindole for 20 mins followed by compound administration for 10 mins. The data set is classed as functional, organism-based.
In data set [17] the target is Mu-type opioid receptor (Rattus norvegicus) (UniProt P33535). Put plainly: Partial agonist activity at rat MOR extracted from CHO cell membrane assessed as stimulation of [35S]GTPgammaS binding at 1 to 10 uM incubated for 60 mins by liquid scintillation counting assay. Type of data set: functional, cell membranes. The conditions noted are these: dose 1-10 µM. For orientation: GTPγS is a poorly hydrolysed GTP analogue; its binding reports G protein activation.

Data set [18] deals with Mus musculus. As to the kind of experiment: Antinociceptive activity in male C57BL/6J mouse at 10 nmol, ICV administered for 8 hrs by 55 degreeC warm-water tail-withdrawal assay. The data set is classed as functional, organism-based.
For data set [19], the system named is Mus musculus. As to the kind of experiment: Antinociceptive activity in male C57BL/6J mouse at 15 mg/kg, po by 55 degreeC warm-water tail-withdrawal assay. The data set is classed as functional, organism-based. Conditions: time <= 60.0 min.
Data set [20] has as its target Delta-type opioid receptor (Mus musculus) (UniProt P32300). Put plainly: Agonist activity at mouse DOR extracted from CHO cell membrane assessed as stimulation of [35S]GTPgammaS binding at 1 to 10 uM incubated for 60 mins by liquid scintillation counting assay. The data set is classed as functional, cell membranes. Conditions: filed as agonist, dose 1-10 µM.
Data set [21] is described as follows: Toxicity in male C57BL/6J mouse assessed as lethality up to 30 mg/kg, ip measured after 10 min. Conditions: in vivo. Type of data set: organism-based.
For data set [22], the target named is Kappa-type opioid receptor (Homo sapiens) (UniProt P41145). Put plainly: Partial agonist activity at human KOR extracted from CHO cell membrane assessed as stimulation of [35S]GTPgammaS binding at 1 to 10 uM incubated for 60 mins by liquid scintillation counting assay. Type of data set: functional, cell membranes. Conditions: filed as partial agonist, dose 1-10 µM.

The test system of data set [23] is Mus musculus. As to the kind of experiment: Antinociceptive activity in male C57BL/6J mouse at 10 mg/kg, ip measured after 10 min by 55 degreeC warm-water tail-withdrawal assay. Type of data set: functional, organism-based.
Data set [24] deals with Mu-type opioid receptor (Rattus norvegicus) (UniProt P33535). Put plainly: Partial agonist activity at rat MOR extracted from CHO cell membrane assessed as stimulation of [35S]GTPgammaS binding at 10 uM incubated for 60 mins by liquid scintillation counting assay. The data set is classed as functional, cell membranes. Conditions: filed as partial agonist.
For data set [25], the species on record is Mus musculus. Put plainly: Acute antinociceptive activity in male C57BL/6J mouse measured after 30 min by 55 degreeC warm-water tail-withdrawal assay. Conditions: 0.5 h.

Calls of active or inactive are those of the source. The rule behind the calls is not given here.

Chain of Delta-type opioid receptor (Mus musculus) (P32300 whole entry): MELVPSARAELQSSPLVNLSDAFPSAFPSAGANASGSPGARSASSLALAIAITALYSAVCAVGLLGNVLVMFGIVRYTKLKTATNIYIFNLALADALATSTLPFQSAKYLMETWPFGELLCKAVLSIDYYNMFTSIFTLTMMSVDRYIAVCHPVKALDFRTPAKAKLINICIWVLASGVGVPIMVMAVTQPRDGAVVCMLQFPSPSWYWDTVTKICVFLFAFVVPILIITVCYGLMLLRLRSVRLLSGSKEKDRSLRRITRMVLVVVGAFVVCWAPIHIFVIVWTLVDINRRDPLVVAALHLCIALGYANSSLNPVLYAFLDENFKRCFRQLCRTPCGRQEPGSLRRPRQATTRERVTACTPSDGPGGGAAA
Chain of Mu-type opioid receptor (Rattus norvegicus) (P33535 whole entry): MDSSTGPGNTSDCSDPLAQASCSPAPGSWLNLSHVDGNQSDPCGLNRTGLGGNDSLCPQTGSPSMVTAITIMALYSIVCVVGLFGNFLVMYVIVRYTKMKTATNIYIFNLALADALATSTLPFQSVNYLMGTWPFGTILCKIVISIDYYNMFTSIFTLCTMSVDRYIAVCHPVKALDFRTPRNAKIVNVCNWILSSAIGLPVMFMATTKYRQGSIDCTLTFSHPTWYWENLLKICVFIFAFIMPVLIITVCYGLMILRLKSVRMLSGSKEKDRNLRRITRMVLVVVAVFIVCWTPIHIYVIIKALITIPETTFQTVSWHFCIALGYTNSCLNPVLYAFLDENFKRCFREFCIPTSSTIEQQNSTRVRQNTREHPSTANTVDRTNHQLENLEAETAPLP
Chain of Mu-type opioid receptor (P33535 whole entry): as above
Chain of Delta-type opioid receptor (P33533 whole entry): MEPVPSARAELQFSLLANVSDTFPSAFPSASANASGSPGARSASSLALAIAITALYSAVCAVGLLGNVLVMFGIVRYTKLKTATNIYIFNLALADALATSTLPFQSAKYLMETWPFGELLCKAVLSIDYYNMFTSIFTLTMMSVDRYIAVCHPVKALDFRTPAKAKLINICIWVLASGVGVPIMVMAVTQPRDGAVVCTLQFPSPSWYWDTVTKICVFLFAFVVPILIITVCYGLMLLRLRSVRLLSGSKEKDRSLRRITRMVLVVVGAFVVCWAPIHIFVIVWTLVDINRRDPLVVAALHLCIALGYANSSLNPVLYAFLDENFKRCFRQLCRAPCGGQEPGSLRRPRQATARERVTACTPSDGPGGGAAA
Chain of Kappa-type opioid receptor (P41144 whole entry): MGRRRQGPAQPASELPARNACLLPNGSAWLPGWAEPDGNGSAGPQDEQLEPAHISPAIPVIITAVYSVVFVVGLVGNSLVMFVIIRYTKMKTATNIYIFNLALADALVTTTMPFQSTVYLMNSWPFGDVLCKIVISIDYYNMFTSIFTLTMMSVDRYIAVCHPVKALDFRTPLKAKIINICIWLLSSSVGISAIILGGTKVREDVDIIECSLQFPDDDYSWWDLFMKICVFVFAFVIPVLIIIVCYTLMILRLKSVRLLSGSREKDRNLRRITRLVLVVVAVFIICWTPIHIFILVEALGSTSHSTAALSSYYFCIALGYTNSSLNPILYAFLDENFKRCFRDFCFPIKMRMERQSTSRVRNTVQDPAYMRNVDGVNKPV
Chain of Kappa-type opioid receptor (Homo sapiens) (P41145 whole entry): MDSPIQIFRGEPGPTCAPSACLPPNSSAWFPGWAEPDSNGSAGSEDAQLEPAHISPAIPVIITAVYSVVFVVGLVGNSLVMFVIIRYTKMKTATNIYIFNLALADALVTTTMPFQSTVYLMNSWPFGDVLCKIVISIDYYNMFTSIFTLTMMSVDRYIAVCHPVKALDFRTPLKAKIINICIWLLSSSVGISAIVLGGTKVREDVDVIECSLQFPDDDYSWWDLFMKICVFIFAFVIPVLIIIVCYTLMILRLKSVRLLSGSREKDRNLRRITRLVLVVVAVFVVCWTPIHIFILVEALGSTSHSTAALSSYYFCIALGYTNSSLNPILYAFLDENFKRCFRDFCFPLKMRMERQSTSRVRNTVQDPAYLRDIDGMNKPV

Regarding `CC(C)[C@H]1CN=C2C=C3N(CCc4ccccc4)[C@@H](CCN(C)C)CN3[C@@H](Cc3ccc(O)cc3)CN21`, the inhibition constant Ki (as a rule, a measure of affinity in units of concentration, obtained from inhibition or displacement) in data set [1] came to 0.034 µM; in data set [2], 0.008 µM; in data set [3], 0.02 µM.
For `CC(C)C[C@H]1CN=C2C=C3N4CCC[C@H]4CN3[C@@H](Cc3ccc(O)cc3)CN21` the same measures were 0.169 µM, 0.01 µM and 0.04 µM.
For `CC(C)C[C@H]1CN2C(=CC3=NC[C@H](CCN(C)C)N3C[C@@H]2Cc2ccc(O)cc2)N1CCc1ccccc1`, the median effective dose (ED50) (usually the dose at which the effect has come halfway, by size or by number of responders) came out at 0.2 mg/kg in data set [4] and 2.19 mg/kg in data set [15]. Further, the Activity in data set [5] was 96.3%; in data set [7], “Non-toxic”; in data set [8], “Non-toxic”; in [9], “Non-toxic”; in [11], “Active; Weak Partial Agonism Observed”; in [12], 1.2%. Moreover, the Activity in [14] is 42%; in data set [17], “Not active; No Significant Activity”; in [18], “Active; Comparable To Morphine And U50,488”; in data set [19] it was “Time-dependent-effect”. For the same compound, the result in data set [6], in [10] and in data set [16] was inactive. Further, the Ki amounted to 0.212 µM in [1], 0.005 µM in data set [2] and 0.024 µM in data set [3]. The “Ratio ED50” value in data set [13] stood at 10.73.
Take `CC(C)C[C@H]1CN2C(=CC3=NC[C@H](CN(C)C)N3C[C@@H]2Cc2ccc(O)cc2)N1CCc1ccccc1`: the result in [6], in data set [10] and in data set [16] was inactive. Further, the result in data set [20] and in data set [22] was Active. Further, the Ki was found to be 0.1 µM in [1], 0.005 µM in data set [2] and 0.047 µM in data set [3]. Further, the Activity result in [21] is “Toxic”; in data set [17], “Not active; No Significant Activity”; in [18] it was “Active; Comparable To Morphine And U50,490”; in data set [23], “Active; Minimal Antinociception Observed”.
Regarding `CC(C)[C@H]1CN=C2C=C3N(CCc4ccccc4)[C@@H](CN(C)C)CN3[C@@H](Cc3ccc(O)cc3)CN21`, the Ki is 0.026 µM in data set [1], 0.004 µM in data set [2] and 0.037 µM in data set [3].
On the same counts, the results for `CC(C)(C)c1ccc(S(=O)(=O)NCCN2C(=N)N([C@@H](CCCNC(=N)N)CN3C(=N)NC[C@@H]3CCCNC(=N)N)C[C@@H]2CCCNC(=N)N)cc1` are 0.34 µM, 0.007 µM and 0.093 µM.
On the same counts, the results for `CC(C)[C@H]1CN=C2C=C3N4C[C@H](O)C[C@H]4CN3[C@@H](Cc3ccc(O)cc3)CN21` are 0.254 µM, 0.034 µM and 0.016 µM.
For `CC(C)[C@H]1CN=C2C=C3N(CCN4CCOCC4)[C@@H](Cc4ccc(O)cc4)CN3[C@@H](Cc3ccc(O)cc3)CN21` the same measures were 0.051 µM, 0.011 µM and 0.041 µM.
With `CC(C)C[C@H]1CN2C(=CC3=NC[C@@H](C(C)C)N3C[C@H]2Cc2ccc(O)cc2)N1CCc1ccccc1`, the values for the Ki in [2] and in data set [3] were 0.001 µM and 0.043 µM, respectively.
With `CC(C)(C)c1ccc(S(=O)(=O)NCCN2C(=N)N([C@@H](Cc3ccc(O)cc3)CN3C(=N)NC[C@@H]3CCCNC(=N)N)C[C@@H]2CCCNC(=N)N)cc1`, the values for the Ki in data set [1], in [2] and in [3] were 0.458 µM, 0.084 µM and 0.049 µM, respectively.
On the same counts, the results for `CC(C)C[C@H]1CN=C2C=C3N(CCN4CCOCC4)[C@@H](Cc4ccc(O)cc4)CN3[C@@H](Cc3ccc(O)cc3)CN21` are 0.108 µM, 0.042 µM and 0.02 µM.
As for `CN1CCN(CCN2C(=N)N([C@@H](CCCNC(=N)N)CN3C(=N)NC[C@@H]3Cc3ccc(O)cc3)C[C@@H]2Cc2ccc(O)cc2)CC1`, the ED50 stood at 4.97 mg/kg in data set [4] and 3.9 mg/kg in data set [15]. The Activity is 89.7% in data set [5]; “Non-toxic” in data set [7]; “Non-toxic” in data set [8]; “Non-toxic” in data set [9]; “Active; Weak Partial Agonism Observed” in [11]; 2.5% in data set [12]. Further, the results for the Activity in data set [14], in data set [18] and in [19] were 10.1%, “Active; Comparable To Morphine And U50,491” and “Time-dependent-effect”, respectively. In addition, the outcome in [6], in data set [10] and in data set [16] was inactive. In addition, the Ki in data set [1] was determined as 0.197 µM; in data set [2], 0.04 µM; in [3] it was 0.087 µM. Moreover, the result in data set [24] and in data set [22] was Active. For the same compound, in [13], the “Ratio ED50” value is on record as 0.78.
Turning to `CC(C)C[C@H]1CN([C@@H](Cc2ccc(O)cc2)CN2C(=N)NC[C@@H]2CCCNC(=N)N)C(=N)N1CCNS(=O)(=O)c1ccc(C(C)(C)C)cc1`, the results for the Ki in data set [1], in [2] and in data set [3] were 0.12 µM, 0.001 µM and 0.048 µM, respectively.
On the same counts, the results for `CC(C)C[C@H]1CN2C(=CC3=NC[C@H](CC(C)C)N3C[C@@H]2Cc2ccc(O)cc2)N1CCN1CCOCC1` are 0.157 µM, 0.016 µM and 0.015 µM.
Turning to `CN1CC[C@]23c4c5ccc(O)c4O[C@H]2[C@@H](O)C=C[C@H]3[C@H]1C5` [MORPHINE], the ED50 in [4] was 0.9 mg/kg; in data set [25], 3.37 mg/kg. Besides, in [13], the “Ratio ED50” value turned out to be 3.75.

The record behind these values is ChEMBL document CHEMBL6109116, “Peripherally Restricted Fused Heterocyclic Peptidomimetic Multifunctional Opioid Agonists as Novel, Potent Analgesics” (ACS Med Chem Lett, 2025).
